The IC50 is the concentration needed to halve the response being measured.

Where no end group is shown, it is not given here.

The test concerns the target T1, γ-secretase (Homo sapiens, UniProt P49768).
T1 construct: The solubilized membrane preparations of A549 (16.5 µg total protein) were incubated with 100 µM LMDP or LMDP-lipo; endogenous in cells; host or cells: A549 cells, CHAPSO-solubilized membrane fraction
Nature of the test: Cleavage of fluorescence-quenching substrate peptide probe by γ-secretase in solubilized A549 membrane fraction (competitive inhibition / inhibitor test). The class given is biochemical. The protocol: The membrane fraction was prepared according to previous reports. All procedures were carried out on ice. Cultured HeLa cells, A549 cells, MCF-7 cells and HUEhT-2 cells (about 1×10^8 cells) were pelleted. Cells were resuspended in a buffer containing 20 mM Hepes, pH 7.5, 50 mM KCl, 2 mM EGTA, and protease inhibitor cocktail, Complete Mini (Roche Applied Science), and homogenized using 15 strokes of a Dounce homogenizer with a tight pestle. The cellular homogenates were centrifuged at 800 × g for 10 min and rehomogenized as above. […] The total protein concentration was determined with a BCA Protein Assay Kit (Thermo scientific).
To measure γ-secretase activity, solubilized membrane preparations ([…] total protein) were incubated with eight µM fluorescence-quenching peptide substrate at 37°C overnight and centrifuged at 16,100 × g for 15 min. The fluorescence of supernatants was measured by Plate Infinite M200 (TECAN) with an excitation wavelength of 355 nm and emission wavelength of 440 nm.
To study LMDP cleavage by γ-secretase, the competitive inhibitory effect of LMDP or LMDP-lipo on the cleavage of the peptide substrate (the same as that used in 2.2) was evaluated. […] Then, the fluorescence intensity was measured as described in 2.2. […]

On to `C[C@H](NC(=O)Cc1cc(F)cc(F)c1)C(=O)N[C@H](C(=O)OC(C)(C)C)c1ccccc1` [DAPT, N-[N-(3,5-Difluorophenacetyl)-L-alanyl]-S-phenylglycine t-butyl ester], for which, where the note is “A549 membrane fraction preincubated with DAPT 37°C 30 min, then substrate peptide probe 37°C overnight (Fig. S3)”, the “Inhibition of γ-secretase activity” value is recorded as “about 60%”.
On to LHLMYVAAAAFVLLFFVGCGVLLSRKRRR [LMDP], for which the IC50 (A549 solubilized membrane 16.5 µg protein, 5 µM peptide substrate, 0-100 µM LMDP, 37°C overnight, fluorescence ex 355/em 440 nm, n = 3, read-out: IC50, competitive inhibition of cleavage of fluorescent substrate peptide probe) worked out at 29 µM.
